Assays:
Assay type in all cases: in vivo
morphine-dependent mice [1] = experiment: Body temperature, body weight and mortality during 3-day morphine pellet implantation with multiple peptide injections
Procedure: Male C57B1/6J, Swiss Webster, and ICR mice weighing 26±4 g (SD) were used in these studies.
(§1) The mice were randomly divided into two groups. One received SC injections of water (vehicle) while the other received the peptide under investigation (50 μg/mouse on day one). Two hours later the mice were further subdivided and each subgroup was implanted with placebo or morphine pellets. The injections of vehicle and peptide were repeated 24 and 48 hours after the first injection in their respective groups. Morphine pellets containing 75 mg of morphine free base were implanted subcutaneously (SC) between 10-11 A.M. and were removed 3 days later at the same time. The control animals were implanted with placebo pellets. Body temperature and weight were measured daily at 11 A.M. Temperature was measured using a lubricated rectal probe inserted 2.5 cm into the rectum and measured with a telethermometer (Model 43TA Yellow Springs Instrument Co., Yellow Springs, Ohio).
A similar relationship was found for the loss in body weight. Swiss Webster mice lost 16% and 14% in body weight when receiving Z-Pro-D-Leu or vehicle respectively. The C57B1/6J mice given Z-Pro-D-Leu/morphine lost 14%, while the vehicle/morphine group lost 11% in body weight during this period regardless of peptide or vehicle injections. There was one significant strain difference, i.e. a greater mortality during morphine treatment of C57B1/6J mice ([…], Binomial test).

[2] = Brain levels of morphine, fluorometric; conditions: Swiss Webster mice, third day of morphine treatment, n=6
Procedure: Brain levels of morphine were measured in mice which received either the peptide or vehicle injections. For these studies mice were also sacrificed on the third day following morphine implantation. The mice were then sacrificed by decapitation, brains were rapidly removed, frozen on dry ice, and stored at -80° C. until assay for morphine content. Brain morphine concentrations were determined fluorometrically (Bhargava, H. N., J. Pharma. Sci., 66, 1044-1045[1977]).

morphine-dependent mice [3] = experiment: Analgesia during morphine pellet implantation: jump threshold on electrified grid; conditions: peptide-injected mice receiving morphine
Procedure: (§2) The level of analgesia was tested on each of the three days of the experiment. This was accomplished by measuring the jump threshold to an increasing electrical current in an electrified grid attached to a BRS/LVE #SGS-004 shock generator/scrambler (Evans, W. D., Phychopharmacol., 2, 318-325[1961]). Mice were tested only once and thereafter discarded from the experiment. When determining the effect of the peptide on overt signs of physical dependence (body temperature and weight) and tolerance (body temperature and analgesia), the peptide or vehicle was injected only once on the third day of the morphine or placebo pellet implantation (25 hours prior to the removal of the pellet).
Inhibition of development of tolerance to and physical dependence upon morphine by Z-Pro-D-Leu. The jump threshold in vehicle-injected, morphine-dependent mice decreased, indicating development of tolerance to the analgesic properties of morphine. Threshold scores were: 4.00±0.18;3.50±0.52; 2.55±0.44; on days 1-3 respectively, (n=6 for each group).

morphine-dependent mice [4] = experiment: Abrupt withdrawal after pellet removal: body temperature and body weight for 10 hours (FIG. 1); conditions: Swiss Webster mice, any time point up to 10 hours
Procedure: FIG. 1 illustrates the inhibition of development of physical dependence (abrupt withdrawal) by Z-Pro-D-Leu. Swiss Webster mice were implanted with either morphine or placebo tablets for a period of 3 days. Following removal of the pellets, body temperature and body weight were followed for 10 hours. Panel (a) represents the change in body temperature: (Δ--Δ) Z-Pro-D-Leu/morphine; (O--O) vehicle/morphine; ( -- ) Z-Pro-D-Leu/placebo; ( -- ) vehicle/placebo. Panel (b) represents the maximal loss in body weight during the same period.
To determine the effects of peptide treatment on the development of physical dependence, the abstinence syndrome was precipitated using the morphine antagonist naloxone (Endo Laboratories Inc., N.Y.) at the appropriate dose (0.1, 0.25, or 0.50 mg/kg) injected intraperitoneally (IP) one hour following removal of morphine and placebo pellets. Pellet removal was performed 24 hours after the last peptide injection. These mice were monitored for changes in body temperature (see above) and body weight at 15 min. intervals for one hour after the naloxone injection. Effects of removing the pellets (withdrawing morphine) were also assessed by utilizing body temperature and weight as physical dependence parameters; however, these measurements were made at 2 hour intervals for 10 hours after the removal of the pellets. […]

morphine-dependent mice [5] = experiment: Naloxone-precipitated withdrawal: body temperature and withdrawal signs
Procedure: as §1
To determine the effects of peptide treatment on the development of physical dependence, the abstinence syndrome was precipitated using the morphine antagonist naloxone (Endo Laboratories Inc., N.Y.) at the appropriate dose (0.1, 0.25, or 0.50 mg/kg) injected intraperitoneally (IP) one hour following removal of morphine and placebo pellets. Pellet removal was performed 24 hours after the last peptide injection. These mice were monitored for changes in body temperature (see above) and body weight at 15 min. intervals for one hour after the naloxone injection. Effects of removing the pellets (withdrawing morphine) were also assessed by utilizing body temperature and weight as physical dependence parameters; however, these measurements were made at 2 hour intervals for 10 hours after the removal of the pellets. Placebo implanted mice were treated in the same manner as the morphine pellet implanted mice.

morphine-dependent mice [6] = experiment: Tolerance to hypothermic and analgesic effects of ICV morphine 24 hours after pellet removal; conditions: for Jump Threshold: one hr. after ICV morphine
Procedure: as §2
Tolerance to hypothermic and analgesic effects of morphine injected intracerebroventricularly (ICV) was assessed 24 hours after the removal of the pellets in mice not injected with naloxone. The ICV injection was 40 μg of morphine sulfate solution in 10 μl volume. Body temperature was recorded prior to and at 10 and 15 min. after injection of morphine. Analgesia was determined one hour after the ICV injection.

morphine-dependent mice [7] = experiment: Naloxone-precipitated withdrawal: body temperature and withdrawal signs; remark: listed apart in the source
[8] = C57B1/6J, Z-Pro-D-Leu/morphine, peptide day 3 only, n=6, ICV morphine challenge
[9] = C57B1/6J, Z-Pro-D-Leu/placebo pellets, n=8, ICV morphine challenge
[10] = C57B1/6J, Z-Pro-D-Leu/placebo, peptide day 3 only, n=6, ICV morphine challenge
[11] = Swiss Webster, Z-Pro-D-Leu/morphine pellets, n=15, ICV morphine challenge
[12] = Swiss Webster, Z-Pro-D-Leu/placebo pellets, n=8, ICV morphine challenge

**Q.** With Z-Pro-D-Leu as the substance, how does the “number of deaths, peptide/morphine compared with vehicle/morphine” value (morphine-dependent mice [1]; C57B1/6J P=0.32, Swiss Webster P=0.65, Binomial test) read?
**A.** no difference in the number of deaths

**Q.** What about the “body temperature (X) on the third day of morphine treatment” value (morphine-dependent mice [1]; Swiss Webster mice, morphine pellets, multiple injections of peptide 50 μg/mouse SC, day 3, n=14) of the same substance?
**A.** -1.5 °C

**Q.** What about the “body temperature on days 1 and 2 versus vehicle” value (morphine-dependent mice [1]; Swiss Webster or C57B1/6J mice receiving morphine, days 1 and 2) of the same substance?
**A.** no significant difference in body temperature

**Q.** And the brain morphine levels [2]?
**A.** 288 ± 99 µg/g

**Q.** And the jump threshold score (morphine-dependent mice [3]; day 1)?
**A.** 4.07±0.27

**Q.** And the jump threshold score (morphine-dependent mice [3]; day 2)?
**A.** 4.27±0.62

**Q.** What about the jump threshold score (morphine-dependent mice [3]; day 3) of the same substance?
**A.** 4.45±0.64

**Q.** What about the “hypothermia and loss of body weight during abstinence, peptide/morphine versus the two control groups” value (morphine-dependent mice [4]) of the same substance?
**A.** no significant difference

**Q.** And the “Withdrawal, % of control (jumping, shakes, diarrhea)” value (morphine-dependent mice [5]; Table II, peptide 50 μg per mouse, naloxone 0.1 mg/kg)?
**A.** 9%

**Q.** What about the “Δt, °C. (difference in body temperature just prior to naloxone and 30 min. thereafter)” value (morphine-dependent mice [5]; Table II, peptide 50 μg per mouse, naloxone 0.1 mg/kg, mean ± SD) of the same substance?
**A.** -0.09 ± 0.58 °C

**Q.** What about the “Withdrawal, % of control” value (morphine-dependent mice [5]; Table III, dose 50 μg) of the same substance?
**A.** 9%

**Q.** What about the “Δt, °C.” value (morphine-dependent mice [5]; Table III, dose 50 μg) of the same substance?
**A.** -0.09 ± 0.58 °C

**Q.** And the “lowest dose still effective in blocking physical dependence on morphine” value (morphine-dependent mice [5]; dose-response experiments, Table III)?
**A.** 5 μg per mouse

**Q.** What about the “ability to block development of physical dependence on morphine” value (morphine-dependent mice [5]; naloxone-precipitated withdrawal, Tables II and III) of the same substance?
**A.** exhibited activity

**Q.** And the “Δt (15 min.)” value (morphine-dependent mice [6]; C57B1/6J, Z-Pro-D-Leu/morphine pellets, n=9, ICV morphine challenge)?
**A.** -2.12 ± 0.52

**Q.** And the “Δt (10 min.)” value (morphine-dependent mice [6]; C57B1/6J, Z-Pro-D-Leu/morphine pellets, n=9, ICV morphine challenge 24 hrs after pellet removal)?
**A.** -2.04 ± 0.42

**Q.** And the “Δt (10 min.)” value (morphine-dependent mice [6]; [8])?
**A.** -0.75 ± 0.19

**Q.** And the “Δt (15 min.)” value (morphine-dependent mice [6]; [8])?
**A.** -1.00 ± 0.16

**Q.** What about the “Jump Threshold” value (morphine-dependent mice [6]; C57B1/6J, Z-Pro-D-Leu/morphine, peptide day 3 only, n=6) of the same substance?
**A.** 2.12 ± 0.34

**Q.** What about the “Δt (10 min.)” value (morphine-dependent mice [6]; [9]) of the same substance?
**A.** -1.76 ± 0.33

**Q.** And the “Δt (15 min.)” value (morphine-dependent mice [6]; [9])?
**A.** -2.19 ± 0.41

**Q.** And the “Jump Threshold” value (morphine-dependent mice [6]; C57B1/6J, Z-Pro-D-Leu/placebo pellets, n=8)?
**A.** 3.79 ± 0.39

**Q.** And the “Δt (10 min.)” value (morphine-dependent mice [6]; [10])?
**A.** -1.85 ± 0.25

**Q.** What about the “Δt (15 min.)” value (morphine-dependent mice [6]; [10]) of the same substance?
**A.** -1.88 ± 0.17

**Q.** What about the “Jump Threshold” value (morphine-dependent mice [6]; C57B1/6J, Z-Pro-D-Leu/placebo, peptide day 3 only, n=6) of the same substance?
**A.** 4.05 ± 0.85

**Q.** What about the “Δt (10 min.)” value (morphine-dependent mice [6]; [11]) of the same substance?
**A.** -1.10 ± 0.29

**Q.** And the “Δt (15 min.)” value (morphine-dependent mice [6]; [11])?
**A.** -1.32 ± 0.34

**Q.** And the “Jump Threshold” value (morphine-dependent mice [6]; Swiss Webster, Z-Pro-D-Leu/morphine pellets, n=15)?
**A.** 4.33 ± 0.54

**Q.** And the “Δt (10 min.)” value (morphine-dependent mice [6]; [12])?
**A.** -1.16 ± 0.30

**Q.** And the “Δt (15 min.)” value (morphine-dependent mice [6]; [12])?
**A.** -1.48 ± 0.46

**Q.** What about the “Jump Threshold” value (morphine-dependent mice [6]; Swiss Webster, Z-Pro-D-Leu/placebo pellets, n=8) of the same substance?
**A.** 4.18 ± 0.41

**Q.** What about the “response to ICV injection of morphine” value (morphine-dependent mice [6]; peptide given during chronic morphine treatment) of the same substance?
**A.** not significantly different from morphine-naive mice

**Q.** And the “response to ICV injection of morphine” value (morphine-dependent mice [6]; peptide given only on the third day of pellet implantation)?
**A.** did not effectively alter the manifestation of tolerance

**Q.** What about the “Withdrawal, % of control” value (morphine-dependent mice [7]; Table III, dose 0.5 μg) of the same substance?
**A.** 100%

**Q.** What about the “Withdrawal, % of control” value (morphine-dependent mice [7]; Table III, dose 5 μg) of the same substance?
**A.** 25%

**Q.** And the “Δt, °C.” value (morphine-dependent mice [7]; Table III, dose 5 μg)?
**A.** -0.05 ± 0.37 °C

**Q.** And the “body temperature response 30 min after naloxone” value (morphine-dependent mice [7]; peptide injection only on the third day of morphine treatment)?
**A.** hypothermic response

**Q.** And the “body temperature response 30 min after naloxone” value (morphine-dependent mice [7]; peptide/morphine treatment, multiple injections, naloxone 0.1-0.50 mg/kg IP)?
**A.** mild hyperthermia

Reference: patent US4416871A, “Inhibition by peptides of tolerance to and physical dependence on morphine” (The United States of America as represented by the …, priority 1982, dated 1983)
